Laboratory results as given in patent publication US20250388575A1, “HETEROBIFUNCTIONAL COMPOUNDS AND METHODS OF TREATING DISEASE” (Halda Therapeutics OpCo, Inc., priority 2022, published 2025).
Where two headings read alike, the source gives them in different places.

Experiments:
[1] = system: T-Rex 293 cell line SC3 cells lacking increased expression of androgen receptor protein; assay: Cellular growth inhibition, T-Rex 293 SC3 cells lacking increased androgen receptor expression (no doxycycline), CellTiter-Glo; type: cell-based; settings: T-Rex 293 SC3 cells lacking increased androgen receptor expression (not exposed to doxycycline), 72 hours, CellTiter-Glo; read-out: GI50
In short: (§1)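 SC3, a T-Rex 293 clone with doxycycline-inducible wild-type androgen receptor, was seeded in phenol red-free DMEM with 10% charcoal-dextran FBS, with or without 10 ng/mL doxycycline. Compound added at 24 h (0.5% DMSO) for 72 h at 37° C. CellTiter-Glo 2.0 luminescence; GI50 from four-parameter fit.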

T47D cells = assay: Cellular growth inhibition assay for T47D cells, CellTiter-Glo; type: cell-based, human; settings: 72 hours treatment, CellTiter-Glo 2.0
Description: T47D cells were purchased from American Type Cell Culture (ATCC Cat #HTB-133) and then seeded on poly-D-lysine coated, black clear-bottom 384-well plates at 3000/well in 25 μL Dulbecco's Modified Eagle Medium (DMEM) supplemented with 10% w/w Fetal bovine serum (FBS), 0.2 units/mL recombinant human insulin (Gibco Cat #12585014), and 1% w/w Pen-Strep. Pen-Strep is a commercially available mixture of penicillin G and streptomycin, which is used in mammalian cell culture media to prevent bacterial contamination. Dulbecco's Modified Eagle Medium (DMEM) supplemented with 10% w/w fetal bovine serum (FBS), 0.2 units/mL recombinant human insulin, and 1% w/w Pen-Strep is herein referred to as Treatment Medium. Following seeding of cells in the plates, the plates were spun at 300×g for 30 seconds, then equilibrated to room temperature for 30 minutes, and then deposited in a humidified tissue culture incubator maintained at 37° C. with 5% CO2.
At 24 hours after seeding of the cells, dilutions of test compound were prepared in DMSO and dissolved in Treatment Medium, to achieve a final DMSO concentration of 0.5% w/w, thereby providing the Test Compound Solution. A 25 μL aliquot of the Test Compound Solution was added to cells in the well plates. An equal volume of a solution containing DMSO and Treatment Medium was used as a negative control. Following treatment of cells with Test Compound Solution or said equal volume of a solution containing DMSO and Treatment Medium, the plates were spun at 300×g for 30 seconds, and then left in an incubator for 72 hours.
At the end of the treatment duration, cell viability was quantified with CellTiter-Glo 2.0 reagent (Promega Cat #G9243). For this purpose, plates were equilibrated to room temperature for 30 minutes, and then 25 μL of CellTiter-Glo 2.0 reagent was added to cells in the plate wells. Plates were then agitated on a shaker for two minutes at 500 rpm and subsequently incubated at room temperature for 10 minutes. Following incubation, the plates were spun at 3000×g for 30 seconds, then sealed with an optical adhesive cover, and luminescence readings were measured with an EnVision Plate Reader (Perkin Elmer).
Data was normalized using zero luminescence for baseline. A four-parameter non-linear regression curve fit was applied to dose-response data in GraphPad Prism data analysis software to determine the half-maximal growth inhibitory concentration (GI50) for each test compound.

[2] = system: T-Rex 293 cell line SC3 cells having increased expression of androgen receptor protein; assay: Cellular growth inhibition, T-Rex 293 SC3 cells with increased androgen receptor expression (doxycycline), CellTiter-Glo; type: cell-based; settings: T-Rex 293 SC3 cells with increased androgen receptor expression (exposed to 10 ng/mL doxycycline), 72 hours, CellTiter-Glo; read-out: GI50
In short: as §1

VCaP cells = assay: Cellular growth inhibition assay for VCaP cells, CellTiter-Glo; type: cell-based, human; settings: VCaP cells, 72 hours, CellTiter-Glo, read-out: GI50
In short: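 GI50 values come from four-parameter curve fits of luminescence data normalized to a zero baseline. Compound, in medium with 0.5% DMSO, was added one day after plating and left for 72 h before CellTiter-Glo 2.0 addition.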

| SMILES | GI50 [1] [nM] | GI50 (T47D cells) [nM] | GI50 [2] [nM] | GI50 (VCaP cells) [nM] | GI50 (T47D cells; Homo sapiens) [nM] | GI50 (VCaP cells; Homo sapiens) [nM] |
| --- | --- | --- | --- | --- | --- | --- |
| CCS(=O)(=O)c1ccc(Oc2ccc(CCC3CCN(c4ccc(C(=O)N[C@H]5CC[C@H](Oc6ccc(C#N)c(Cl)c6)CC5)nn4)CC3)c(Cl)c2)c(-c2cn(C)c(=O)c3[nH]ccc23)c1 [I-84] | > 3000 | < 500 | < 500 | < 500 |  |  |
| CCS(=O)(=O)c1ccc(Oc2ccc(CCC3CCN(c4ccc(C(=O)N[C@H]5CC[C@H](Oc6ccc(C#N)c(Cl)c6)CC5)nn4)CC3)c(C(F)(F)F)c2)c(-c2cn(C)c(=O)c3[nH]ccc23)c1 [I-85] | < 500 | < 500 | < 500 | < 500 |  |  |
| CCS(=O)(=O)c1ccc(Oc2ccc(CC3CC4(CCN(c5ccc(C(=O)N[C@H]6CC[C@H](Oc7ccc(C#N)c(Cl)c7)CC6)nn5)CC4)C3)cc2)c(-c2cn(C)c(=O)c3[nH]ccc23)c1 [I-86] | < 500 |  | < 500 |  | < 500 | < 500 |
| C=CC1CN(c2ccc(C(=O)N[C@H]3CC[C@H](Oc4ccc(C#N)c(Cl)c4)CC3)nn2)CC1c1ccc(Oc2ccc(S(=O)(=O)CC)cc2-c2cn(C)c(=O)c3[nH]ccc23)cc1 (stereo partly drawn) [I-87] | 500 to 1500 | < 500 | < 500 | < 500 |  |  |
| CCS(=O)(=O)c1ccc(Oc2ccc(C(C)(C)N3CC4(CN(c5ccc(C(=O)N[C@H]6CC[C@H](Oc7ccc(C#N)c(Cl)c7)CC6)nn5)C4)C3)cc2)c(-c2cn(C)c(=O)c3[nH]ccc23)c1 [I-88] | < 500 |  | < 500 |  | < 500 | < 500 |
| CCC1CN(c2ccc(C(=O)N[C@H]3CC[C@H](Oc4ccc(C#N)c(Cl)c4)CC3)nn2)CC1c1ccc(Oc2ccc(S(=O)(=O)CC)cc2-c2cn(C)c(=O)c3[nH]ccc23)cc1 (stereo partly drawn) [I-89] | > 3000 | < 500 | < 500 | < 500 |  |  |
| CCS(=O)(=O)c1ccc(Oc2ccc(N3CC(C4CCN(c5ccc(C(=O)N[C@H]6CC[C@H](Oc7ccc(C#N)c(Cl)c7)CC6)nn5)CC4)C3)cc2)c(-c2cn(C)c(=O)c3[nH]ccc23)c1 [I-91] | < 500 | < 500 | < 500 | < 500 |  |  |
| CN(CCCc1ccc(Oc2ccc(C(C)(C)O)cc2-c2cn(C)c(=O)c3[nH]ccc23)cc1)c1ccc(C(=O)N[C@H]2CC[C@H](Oc3ccc(C#N)c(Cl)c3)CC2)nn1 [I-105] | < 500 | 1500 to 3000 | < 500 | < 500 |  |  |
| Cn1cc(-c2cc(C(C)(C)O)ccc2Oc2ccc(CCC3CCN(c4ccc(C(=O)N[C@H]5CC[C@H](Oc6ccc(C#N)c(Cl)c6)CC5)nn4)CC3)c(F)c2F)c2cc[nH]c2c1=O [I-112] | > 3000 | 500 to 1500 | < 500 | 500 to 1500 |  |  |
| Cn1cc(-c2cc(C(C)(C)O)ccc2Oc2ccc(CCC3CCN(c4ccc(C(=O)N[C@H]5CC[C@H](Oc6ccc(C#N)c(Cl)c6)CC5)nn4)CC3)c(F)c2)c2cc[nH]c2c1=O [I-113] | > 3000 | 500 to 1500 | < 500 | < 500 |  |  |
| Cn1cc(-c2cc(C(C)(C)O)ccc2Oc2cc(F)c(CCC3CCN(c4ccc(C(=O)N[C@H]5CC[C@H](Oc6ccc(C#N)c(Cl)c6)CC5)nn4)CC3)c(F)c2)c2cc[nH]c2c1=O [I-114] | > 3000 | 1500 to 3000 | < 500 | < 500 |  |  |
| Cn1cc(-c2cc(C(C)(C)O)ccc2Oc2c(F)cc(CCC3CCN(c4ccc(C(=O)N[C@H]5CC[C@H](Oc6ccc(C#N)c(Cl)c6)CC5)nn4)CC3)cc2F)c2cc[nH]c2c1=O [I-115] | > 3000 | < 500 | < 500 | < 500 |  |  |
